Results published in patent US6479531B1, “Gastrin and cholecystokinin receptor ligands” (James Black Foundation Limited, priority 1998, dated 2002).

Experiments:
CCKB receptor = target: T1, CCKB receptor (Mus musculus, UniProt P56481); assay: CCKB receptor radioligand binding assay in mouse cortical membranes; details: [125I]-CCK8(S) 200 pM, 150 min at 21±3°, read-out: CCKB pKi (converted)
T1 construct: The whole brains from male mice (CD1 22-25 g; Charles River) were removed; from tissue; host or cells: cerebral cortex membranes of male CD1 mice
T1 sequence (P56481 1-453): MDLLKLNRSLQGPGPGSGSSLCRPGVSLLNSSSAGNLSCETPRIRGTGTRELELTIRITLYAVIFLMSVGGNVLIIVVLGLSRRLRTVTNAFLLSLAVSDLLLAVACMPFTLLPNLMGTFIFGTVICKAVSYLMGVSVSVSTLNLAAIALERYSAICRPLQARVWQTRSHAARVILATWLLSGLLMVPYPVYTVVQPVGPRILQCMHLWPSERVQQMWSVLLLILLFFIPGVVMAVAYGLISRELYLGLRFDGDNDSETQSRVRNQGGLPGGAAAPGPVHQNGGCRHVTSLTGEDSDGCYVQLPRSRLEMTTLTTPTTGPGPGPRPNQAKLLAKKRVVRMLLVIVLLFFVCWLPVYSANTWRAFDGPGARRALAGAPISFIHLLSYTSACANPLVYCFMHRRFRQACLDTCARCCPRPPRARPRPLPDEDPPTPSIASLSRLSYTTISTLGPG
Summary of the method: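 Bound radioactivity was gamma-counted after rapid GF/B filtration and cold 50 mM Tris-HCl (pH 7.4) washes. The tissue was cerebral cortex from male CD1 mice, prepared as twice-centrifuged membranes in pH 7.2 HEPES/NaCl/KCl/MgCl2/EDTA buffer with bacitracin at 20 mg/ml original wet weight.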

gastrin receptor = target: T2, gastrin receptor (Rattus norvegicus, UniProt P30553); assay: gastrin antagonist activity in immature rat stomach assay (pentagastrin dose-response, acid secretion); details: isolated immature rat stomach, cumulative pentagastrin dose-response curves, read-out: Gastrin pKb (converted)
T2 construct: The stomach was excised and flushed with ca. 1 ml of unbuffered physiological saline solution; from tissue; host or cells: isolated whole stomach of immature rats (ca. 21 days old)
T2 sequence (P30553 1-452): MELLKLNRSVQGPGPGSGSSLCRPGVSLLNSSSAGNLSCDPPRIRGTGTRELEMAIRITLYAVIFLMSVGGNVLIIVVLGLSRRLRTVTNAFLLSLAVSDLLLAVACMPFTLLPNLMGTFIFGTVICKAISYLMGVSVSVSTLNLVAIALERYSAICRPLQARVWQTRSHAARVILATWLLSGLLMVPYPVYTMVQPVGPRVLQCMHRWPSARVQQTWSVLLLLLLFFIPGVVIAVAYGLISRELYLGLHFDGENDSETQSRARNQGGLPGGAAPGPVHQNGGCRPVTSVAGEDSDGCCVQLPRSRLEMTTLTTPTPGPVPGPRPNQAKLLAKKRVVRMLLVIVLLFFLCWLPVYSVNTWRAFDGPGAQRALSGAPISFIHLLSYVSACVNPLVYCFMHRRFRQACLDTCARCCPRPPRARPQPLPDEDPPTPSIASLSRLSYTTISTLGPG
Summary of the method: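 Gastrin antagonism was measured as the effect on cumulative pentagastrin dose-response curves of acid output, recorded by pH electrode in the perfusate of an excised immature rat stomach (ca. 21 days old). Test compound was placed in the serosal bath (37°, 3×10^−8 M 5-methylfurmethide) 60 min before pentagastrin.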

SMILES	Ki (CCKB receptor) [nM]	Kb (gastrin receptor) [nM]
O=C(O)c1cccc(NC(=O)c2nc(-c3ccccc3F)[nH]c2CCC23CC4CC(CC(C4)C2)C3)c1 [Example 50, 3-{[5-(2-Adamantan-1-yl-ethyl)-2-(2-fluoro-phenyl)-1H-imidazole-4-carbonyl]-amino}-benzoic Acid]	331	26.3
CC(C)(C)Cc1nc(C(=O)Nc2cccc(C(=O)O)c2)c(CCC23CC4CC(CC(C4)C2)C3)[nH]1 [Example 111, 3-{[5-(2-Adamantan-1-yl-ethyl)-2-(2,2-dimethyl-propyl)-1H-imidazole-4-carbonyl]-amino}-benzoic Acid]	91.2	41.7
CN1CCC[C@H]1c1nc(C(=O)Nc2cccc(C(=O)O)c2)c(CCC23CC4CC(CC(C4)C2)C3)[nH]1 [Example 137, (S)-3-{[5-(2-Adamantan-1-yl-ethyl)-2-(1-methyl-pyrrolidin-2-yl)-1H-imidazole-4-carbonyl]-amino}-benzoic Acid]	324	5.13
CC1(C)C2CC=C(c3nc(C(=O)Nc4cccc(C(=O)O)c4)c(CCC45CC6CC(CC(C6)C4)C5)[nH]3)C1C2 (stereo not shown) [Example 192, 3-{[5-(2-Adamantan-1-yl-ethyl)-2-(6,6-dimethyl-bicyclo[3.1.1]hept-2-en-2-yl)-1H-imidazole-4-carbonyl]-amino}-benzoic Acid]	66.1	141
O=C(O)c1cc(NC(=O)c2nc(C3CCCCC3)[nH]c2CCC23CC4CC(CC(C4)C2)C3)cc(C(=O)O)c1 [Example 129, 5-{[5-(2-Adamantan-1-yl-ethyl)-2-cyclohexyl-1H-imidazole-4-carbonyl]-amino}-isophthalic Acid]	219	380
Cc1ccccc1-c1nc(C(=O)Nc2cccc(C(=O)O)c2)c(CCC23CC4CC(CC(C4)C2)C3)[nH]1 [Example 57, 3-{[5-(2-Adamantan-1-yl-ethyl)-2-o-tolyl-1H-imidazole-4-carbonyl]-amino}-benzoic Acid]	120	58.9
CC(Cc1[nH]c(C2CCCCC2)nc1C(=O)Nc1cccc(C(=O)O)c1)C12CC3CC(CC(C3)C1)C2 (racemic) [Example 132, (±)-3-{[5-(2-Adamantan-1-yl-propyl)-2-cyclohexyl-1H-imidazole-4-carbonyl]-amino}-benzoic Acid]	42.7	8.13
Cc1ccc(NC(=O)c2nc(C(C)(C)C)[nH]c2CCC23CC4CC(CC(C4)C2)C3)cc1C(=O)O [Example 198, 5-{[5-(2-Adamantan-1-yl-ethyl)-2-tert-butyl-1H-imidazole-4-carbonyl]-amino}-2-methyl-benzoic Acid]	8.71	8.13
O=C(O)c1cccc(NC(=O)c2nc(C3CC4CCC3C4)[nH]c2CCC23CC4CC(CC(C4)C2)C3)c1 (racemic) [Example 114, (±)-endo-3-{[5-(2-Adamantan-1-yl-ethyl)-2-bicyclo[2.2.1]hept-2-yl-1H-imidazole-4-carbonyl]-amino}-benzoic Acid]	31.6	2.24
CC1(c2nc(C(=O)Nc3cccc(C(=O)O)c3)c(CCC34CC5CC(CC(C5)C3)C4)[nH]2)CCCCC1 [Example 199, 3-{[5-(2-Adamantan-1-yl-ethyl)-2-(1-methyl-cyclohexyl)-1H-imidazole-4-carbonyl]-amino}-benzoic Acid]	17.8	1.62
CCc1ccccc1-c1nc(C(=O)Nc2cccc(C(=O)O)c2)c(CCC23CC4CC(CC(C4)C2)C3)[nH]1 [Example 158, 3-{[5-(2-Adamantan-1-yl-ethyl)-2-(2-ethyl-phenyl)-1H-imidazole-4-carbonyl]-amino}-benzoic Acid]	759	105
Cc1cc(F)ccc1-c1nc(C(=O)Nc2cccc(C(=O)O)c2)c(CCC23CC4CC(CC(C4)C2)C3)[nH]1 [Example 96, 3-{[5-(2-Adamantan-1-yl-ethyl)-2-(4-fluoro-2-methyl-phenyl)-1H-imidazole-4-carbonyl]-amino}-benzoic Acid]	166	12.3
O=C(O)c1cccc(NC(=O)c2cc(-c3ccccc3)[nH]c2CC2CCCCCC2)c1 [Example 12, 3-[(2-Cycloheptylmethyl-5-phenyl-1H-pyrrole-3-carbonyl)-amino]-benzoic Acid]	1120	1000
CN(C)c1ccc(-c2nc(C(=O)Nc3cccc(C(=O)O)c3)c(CCC34CC5CC(CC(C5)C3)C4)[nH]2)cc1 [Example 72, 3-{[5-(2-Adamantan-1-yl-ethyl)-2-(4-dimethylamino-phenyl)-1H-imidazole-4-carbonyl]-amino}-benzoic Acid]	295	1230
Cc1ccc(C(=O)O)cc1NC(=O)c1nc(C2CCCCC2)[nH]c1CCC12CC3CC(CC(C3)C1)C2 [Example 252, 3-{[5-(2-Adamantan-1-yl-ethyl)-2-cyclohexyl-1H-imidazole-4-carbonyl]-amino}-4-methylbenzoic Acid]	170	263
O=C(O)c1cc(NC(=O)c2cc(-c3ccccc3)[nH]c2CC23CC4CC(CC(C4)C2)C3)cc(C(=O)O)c1 [Example 1, 5-[(2-Adamantan-1-ylmethyl-5-phenyl-1H-pyrrole-3-carbonyl)-amino]-isophthalic Acid]	191	468
O=C(O)c1cccc(NC(=O)c2nc(-c3cccc(F)c3)[nH]c2CCC23CC4CC(CC(C4)C2)C3)c1 [Example 55, 3-{[5-(2-Adamantan-1-yl-ethyl)-2-(3-fluoro-phenyl)-1H-imidazole-4-carbonyl]-amino}-benzoic Acid]	646	229
Cc1ccccc1-c1nc(C(=O)Nc2ccc(F)c(C(=O)O)c2)c(CCC23CC4CC(CC(C4)C2)C3)[nH]1 [Example 105, 5-{[5-(2-Adamantan-1-yl-ethyl)-2-o-tolyl-1H-imidazole-4-carbonyl]-amino}-2-fluoro-benzoic Acid]	46.8	87.1
Nc1ccc(C(=O)O)cc1NC(=O)c1nc(C2CCCCC2)[nH]c1CCC12CC3CC(CC(C3)C1)C2 [Example 131, 3-{[5-(2-Adamantan-1-yl-ethyl)-2-cyclohexyl-1H-imidazole-4-carbonyl]-amino}-4-amino-benzoic Acid]	407	339
O=C(O)c1cccc(NC(=O)c2nc(C3CC4C=CC3C4)[nH]c2CCC23CC4CC(CC(C4)C2)C3)c1 (racemic) [Example 117, (±)-exo-3-{[5-(2-Adamantan-1-yl-ethyl)-2-bicyclo[2.2.1]hept-5-ene-2-yl-1H-imidazole-4-carbonyl]-amino}-benzoic Acid]	36.3	3.63
Cc1ccc(NC(=O)c2nc([C@@H]3CCCN3C)[nH]c2CCC23CC4CC(CC(C4)C2)C3)cc1C(=O)O [Example 138, (S)-5-{[5-(2-Adamantan-1-yl-ethyl)-2-(1-methyl-pyrrolidin-2-yl)-1H-imidazole-4-carbonyl]-amino}-2-methyl-benzoic Acid]	50.1	25.7
O=C(O)c1cccc(NC(=O)c2nc(-c3cccc(O)c3)[nH]c2CCC23CC4CC(CC(C4)C2)C3)c1 [Example 62, 3-{[5-(2-Adamantan-1-yl-ethyl)-2-(3-hydroxy-phenyl)-1H-imidazole-4-carbonyl]-amino}-benzoic Acid]	389	1200
O=C(O)c1cccc(NC(=O)c2nc(-c3ccccc3)[nH]c2CC2CCCCCC2)c1 [Example 26, 3-[(5-Cycloheptylmethyl-2-phenyl-1H-imidazole-4-carbonyl)-amino]-benzoic Acid]	1480	407
